{
  "source": "paper PMC8398451",
  "about": "“Molecular Engineering of Curcumin, an Active Constituent of Curcuma longa L. (Turmeric) of the Family Zingiberaceae with Improved Antiproliferative Activity” (Plants, 2021)",
  "key": {"CCRF-CEM": {"tested_on": "CCRF-CEM", "test": "NCI antiproliferative SRB assay, Leukemia panel", "assay_type": "cell-based, Human", "conditions": "one dose 10 µM"}, "K-562": {"tested_on": "K-562", "test": "NCI antiproliferative SRB assay, Leukemia panel", "assay_type": "cell-based, Human", "conditions": "one dose 10 µM"}, "RPMI-8226": {"tested_on": "RPMI-8226", "test": "NCI antiproliferative SRB assay, Leukemia panel", "assay_type": "cell-based, Human", "conditions": "one dose 10 µM"}, "A549/ATCC": {"tested_on": "A549/ATCC", "test": "NCI antiproliferative SRB assay, Non-Small Cell Lung Cancer panel", "assay_type": "cell-based, Human", "conditions": "one dose 10 µM"}, "NCI-H23": {"tested_on": "NCI-H23", "test": "NCI antiproliferative SRB assay, Non-Small Cell Lung Cancer panel", "assay_type": "cell-based, Human", "conditions": "one dose 10 µM"}, "COLO 205": {"tested_on": "COLO 205", "test": "NCI antiproliferative SRB assay, Colon Cancer panel", "assay_type": "cell-based, Human", "conditions": "one dose 10 µM"}, "HCT-116": {"tested_on": "HCT-116", "test": "NCI antiproliferative SRB assay, Colon Cancer panel", "assay_type": "cell-based, Human", "conditions": "one dose 10 µM"}, "KM12": {"tested_on": "KM12", "test": "NCI antiproliferative SRB assay, Colon Cancer panel", "assay_type": "cell-based, Human", "conditions": "one dose 10 µM"}, "SF-539": {"tested_on": "SF-539", "test": "NCI antiproliferative SRB assay, CNS Cancer panel", "assay_type": "cell-based, Human", "conditions": "one dose 10 µM"}, "SNB-19": {"tested_on": "SNB-19", "test": "NCI antiproliferative SRB assay, CNS Cancer panel", "assay_type": "cell-based, Human", "conditions": "one dose 10 µM"}, "U251": {"tested_on": "U251", "test": "NCI antiproliferative SRB assay, CNS Cancer panel", "assay_type": "cell-based", "conditions": "U251; one dose 10 µM"}, "LOX IMVI": {"tested_on": "LOX IMVI", "test": "NCI antiproliferative SRB assay, Melanoma panel", "assay_type": "cell-based, Human", "conditions": "one dose 10 µM"}, "MALME-3M": {"tested_on": "MALME-3M", "test": "NCI antiproliferative SRB assay, Melanoma panel", "assay_type": "cell-based, Human", "conditions": "one dose 10 µM"}, "M14": {"tested_on": "M14", "test": "NCI antiproliferative SRB assay, Melanoma panel", "assay_type": "cell-based, Human", "conditions": "one dose 10 µM"}, "MDA-MB-435": {"tested_on": "MDA-MB-435", "test": "NCI antiproliferative SRB assay, Melanoma panel", "assay_type": "cell-based", "conditions": "one dose 10 µM"}, "SK-MEL-28": {"tested_on": "SK-MEL-28", "test": "NCI antiproliferative SRB assay, Melanoma panel", "assay_type": "cell-based, Human", "conditions": "one dose 10 µM"}, "UACC-257": {"tested_on": "UACC-257", "test": "NCI antiproliferative SRB assay, Melanoma panel", "assay_type": "cell-based, Human", "conditions": "one dose 10 µM"}, "IGROV1": {"tested_on": "IGROV1", "test": "NCI antiproliferative SRB assay, Ovarian Cancer panel", "assay_type": "cell-based, Human", "conditions": "one dose 10 µM"}, "OVCAR-4": {"tested_on": "OVCAR-4", "test": "NCI antiproliferative SRB assay, Ovarian Cancer panel", "assay_type": "cell-based, Human", "conditions": "one dose 10 µM"}, "OVCAR-5": {"tested_on": "OVCAR-5", "test": "NCI antiproliferative SRB assay, Ovarian Cancer panel", "assay_type": "cell-based, Human", "conditions": "one dose 10 µM"}, "NCI/ADR-RES": {"tested_on": "NCI/ADR-RES", "test": "NCI antiproliferative SRB assay, Ovarian Cancer panel", "assay_type": "cell-based, Human", "conditions": "one dose 10 µM"}, "SK-OV-3": {"tested_on": "SK-OV-3", "test": "NCI antiproliferative SRB assay, Ovarian Cancer panel", "assay_type": "cell-based, Human", "conditions": "one dose 10 µM"}, "RXF 393": {"tested_on": "RXF 393", "test": "NCI antiproliferative SRB assay, Renal Cancer panel", "assay_type": "cell-based, Human", "conditions": "one dose 10 µM"}, "UO-31": {"tested_on": "UO-31", "test": "NCI antiproliferative SRB assay, Renal Cancer panel", "assay_type": "cell-based, Human", "conditions": "one dose 10 µM"}, "PC-3": {"tested_on": "PC-3", "test": "NCI antiproliferative SRB assay, Prostate Cancer panel", "assay_type": "cell-based, Human", "conditions": "one dose 10 µM"}, "MDA-MB-231": {"tested_on": "MDA-MB-231", "test": "NCI antiproliferative SRB assay, Breast Cancer panel", "assay_type": "cell-based", "conditions": "one dose 10 µM"}, "[1]": {"tested_on": "Non-Small Cell Lung Cancer cell line panel", "test": "NCI antiproliferative assay, panel summary", "assay_type": "cell-based, Human", "conditions": "10 µM"}, "[2]": {"tested_on": "Colon Cancer cell line panel", "test": "NCI antiproliferative assay, panel summary", "assay_type": "cell-based, Human", "conditions": "10 µM"}, "[3]": {"tested_on": "CNS Cancer cell line panel", "test": "NCI antiproliferative assay, panel summary", "assay_type": "cell-based, Human", "conditions": "10 µM"}, "[4]": {"tested_on": "Ovarian Cancer cell line panel", "test": "NCI antiproliferative assay, panel summary", "assay_type": "cell-based, Human", "conditions": "10 µM"}, "[5]": {"tested_on": "Breast Cancer cell line panel", "test": "NCI antiproliferative assay, panel summary", "assay_type": "cell-based, Human", "conditions": "10 µM"}},
  "data": [
    {"smiles": "COc1ccc(/C=C/c2cc(/C=C/c3ccc(OC)c(O)c3)n(-c3cccc(Cl)c3)c(=S)n2)cc1O", "note": "[3a]", "values": [
      {"measurement": "%GI", "setting": "CCRF-CEM", "result": 46.57, "unit": "%"},
      {"measurement": "GP (growth percent)", "setting": "CCRF-CEM", "result": 53.43},
      {"measurement": "%GI", "setting": "K-562", "result": 40.77, "unit": "%"},
      {"measurement": "GP (growth percent)", "setting": "K-562", "result": 59.23},
      {"measurement": "%GI", "setting": "RPMI-8226", "result": 39.41, "unit": "%"},
      {"measurement": "GP (growth percent)", "setting": "RPMI-8226", "result": 60.59},
      {"measurement": "%GI", "setting": "A549/ATCC", "result": 27.44, "unit": "%"},
      {"measurement": "GP (growth percent)", "setting": "A549/ATCC", "result": 72.56},
      {"measurement": "%GI", "setting": "NCI-H23", "result": 9.05, "unit": "%"},
      {"measurement": "GP (growth percent)", "setting": "NCI-H23", "result": 90.95},
      {"measurement": "%GI", "setting": "COLO 205", "result": "−7.08", "unit": "%"},
      {"measurement": "GP (growth percent)", "setting": "COLO 205", "result": 107.08},
      {"measurement": "%GI", "setting": "HCT-116", "result": 38.12, "unit": "%"},
      {"measurement": "GP (growth percent)", "setting": "HCT-116", "result": 61.88},
      {"measurement": "%GI", "setting": "KM12", "result": 19.67, "unit": "%"},
      {"measurement": "GP (growth percent)", "setting": "KM12", "result": 80.33},
      {"measurement": "%GI", "setting": "SF-539", "result": 6.89, "unit": "%"},
      {"measurement": "GP (growth percent)", "setting": "SF-539", "result": 93.11},
      {"measurement": "%GI", "setting": "SNB-19", "result": 15.45, "unit": "%"},
      {"measurement": "GP (growth percent)", "setting": "SNB-19", "result": 84.55},
      {"measurement": "%GI", "setting": "U251", "result": 40.59, "unit": "%"},
      {"measurement": "GP (growth percent)", "setting": "U251", "result": 59.41},
      {"measurement": "%GI", "setting": "LOX IMVI", "result": 21.36, "unit": "%"},
      {"measurement": "GP (growth percent)", "setting": "LOX IMVI", "result": 78.64},
      {"measurement": "%GI", "setting": "MALME-3M", "result": 10.54, "unit": "%"},
      {"measurement": "GP (growth percent)", "setting": "MALME-3M", "result": 89.46},
      {"measurement": "%GI", "setting": "M14", "result": 5.96, "unit": "%"},
      {"measurement": "GP (growth percent)", "setting": "M14", "result": 94.04},
      {"measurement": "%GI", "setting": "MDA-MB-435", "result": 18.68, "unit": "%"},
      {"measurement": "GP (growth percent)", "setting": "MDA-MB-435", "result": 81.32},
      {"measurement": "%GI", "setting": "SK-MEL-28", "result": 7.56, "unit": "%"},
      {"measurement": "GP (growth percent)", "setting": "SK-MEL-28", "result": 92.44},
      {"measurement": "%GI", "setting": "UACC-257", "result": 47.09, "unit": "%"},
      {"measurement": "GP (growth percent)", "setting": "UACC-257", "result": 52.91},
      {"measurement": "%GI", "setting": "IGROV1", "result": 4.74, "unit": "%"},
      {"measurement": "GP (growth percent)", "setting": "IGROV1", "result": 95.26},
      {"measurement": "%GI", "setting": "OVCAR-4", "result": 17.45, "unit": "%"},
      {"measurement": "GP (growth percent)", "setting": "OVCAR-4", "result": 82.55},
      {"measurement": "%GI", "setting": "OVCAR-5", "result": "−12.92", "unit": "%"},
      {"measurement": "GP (growth percent)", "setting": "OVCAR-5", "result": 112.92},
      {"measurement": "%GI", "setting": "NCI/ADR-RES", "result": 3.63, "unit": "%"},
      {"measurement": "GP (growth percent)", "setting": "NCI/ADR-RES", "result": 96.37},
      {"measurement": "%GI", "setting": "SK-OV-3", "result": "−0.88", "unit": "%"},
      {"measurement": "GP (growth percent)", "setting": "SK-OV-3", "result": 100.88},
      {"measurement": "%GI", "setting": "RXF 393", "result": 7.37, "unit": "%"},
      {"measurement": "GP (growth percent)", "setting": "RXF 393", "result": 92.63},
      {"measurement": "%GI", "setting": "UO-31", "result": 28.74, "unit": "%"},
      {"measurement": "GP (growth percent)", "setting": "UO-31", "result": 71.26},
      {"measurement": "%GI", "setting": "PC-3", "result": 10.79, "unit": "%"},
      {"measurement": "GP (growth percent)", "setting": "PC-3", "result": 89.21},
      {"measurement": "%GI", "setting": "MDA-MB-231", "result": 31.75, "unit": "%"},
      {"measurement": "GP (growth percent)", "setting": "MDA-MB-231", "result": 68.25},
      {"measurement": "Mean % GI", "setting": "[1]", "result": 17.22, "unit": "%"},
      {"measurement": "Mean % GI", "setting": "[2]", "result": 16.72, "unit": "%"},
      {"measurement": "Mean % GI", "setting": "[3]", "result": 14.74, "unit": "%"},
      {"measurement": "Mean % GI", "setting": "[4]", "result": 7.04, "unit": "%"},
      {"measurement": "Mean % GI", "setting": "[5]", "result": 26.56, "unit": "%"}
    ]}
  ]
}
